Source: ChEMBL document CHEMBL1134730, “Synthesis and biological evaluation of didemnin photoaffinity analogues” (Bioorg Med Chem Lett, 2001)
*1 amine or outer side, *2 acyl side, *3 side chain or, on linkers, in order; H or OH if unused. Where a SMILES comes first, the peptide text is derived from it. Bridges are numbered along the chain shown (N, C = ends). [ ]: non-standard residue; d: D form. The star is where a group is joined. ξ: configuration not given here. X1 = CC[C@H](C)[C@@H](N[*:1])[C@@H](O)CC(=O)O[C@H](C(=O)[C@H](C)C(=O)[*:2])C(C)C; Benzoyl(4-benzoyl) = O=C(c1ccccc1)c1ccc(C(=O)*)cc1; NMeY = CN[C@@H](Cc1ccc(O)cc1)C(=O)O; dNMeL = CN[C@H](CC(C)C)C(=O)O; Ahx = NCCCCCC(=O)O; ξP = O=C(O)C1CCCN1

What was measured:
Assay type in all cases: functional
[1] = The compound was evaluated for growth inhibition in NCI-60 tumor cells.; conditions: Homo sapiens
[2] = The compound was evaluated for toxicity in NCI-60 tumor cells.; conditions: Homo sapiens
[3] = The compound was evaluated for total growth inhibition in NCI-60 tumor cells.; conditions: Homo sapiens
[4] = The compound was evaluated for inhibition of protein biosynthesis.

Row | SMILES | GI50 [1] [µM] | LC50 [2] [µM] | TGI [3] [µM] | IC50 [4] [µM]
1 | CC[C@H](C)[C@H]1NC(=O)[C@@H](NC(=O)[C@@H](CC(C)C)N(C)C(=O)CCCCCNC(=O)CCCCCNC(=O)c2ccc(C(=O)c3ccccc3)cc2)[C@@H](C)OC(=O)[C@H](Cc2ccc(OC)cc2)N(C)C(=O)C2CCCN2C(=O)[C@H](CC(C)C)NC(=O)[C@@H](C)C(=O)[C@H](C(C)C)OC(=O)C[C@@H]1O (stereo partly specified) | 0.017 | 48 | 5 | 19
2 | CC[C@H](C)[C@H]1NC(=O)[C@@H](NC(=O)[C@@H](CC(C)C)N(C)C(=O)CCCCCNC(=O)c2ccc(C(=O)c3ccccc3)cc2)[C@@H](C)OC(=O)[C@H](Cc2ccc(OC)cc2)N(C)C(=O)C2CCCN2C(=O)[C@H](CC(C)C)NC(=O)[C@@H](C)C(=O)[C@H](C(C)C)OC(=O)C[C@@H]1O (stereo partly specified) ({Benzoyl(4-benzoyl)-Ahx}-[dNMeL]T[X1]L[ξP][NMeY](Me); ester 2-C) | 0.0043 | 19 | 21 | 24
3 | CC[C@H](C)[C@H]1NC(=O)[C@@H](NC(=O)[C@@H](CC(C)C)N(C)C(=O)CNC(=O)c2ccc(C(=O)c3ccccc3)cc2)[C@@H](C)OC(=O)[C@H](Cc2ccc(OC)cc2)N(C)C(=O)C2CCCN2C(=O)[C@H](CC(C)C)NC(=O)[C@@H](C)C(=O)[C@H](C(C)C)OC(=O)C[C@@H]1O (stereo partly specified) ({Benzoyl(4-benzoyl)}-G[dNMeL]T[X1]L[ξP][NMeY](Me); ester 3-C) | 0.013 | 23 | 2 | 4.5
4 | CC[C@H](C)[C@H]1NC(=O)[C@@H](NC(=O)[C@@H](CC(C)C)N(C)C(=O)c2ccc(C(=O)c3ccccc3)cc2)[C@@H](C)OC(=O)[C@H](Cc2ccc(OC)cc2)N(C)C(=O)C2CCCN2C(=O)[C@H](CC(C)C)NC(=O)[C@@H](C)C(=O)[C@H](C(C)C)OC(=O)C[C@@H]1O (stereo partly specified) ({Benzoyl(4-benzoyl)}-[dNMeL]T[X1]L[ξP][NMeY](Me); ester 2-C) | 0.003 | 15 | 0.35 | 4
